Test results published in patent US12084472B2 (Ardelyx, Inc., priority 2015, dated 2024).

Target: T1, human TGR5 (Homo sapiens, UniProt Q8TDU6)
T1 construct: expressed in transfected cells; host or cells: HEK293
T1 sequence (Q8TDU6 1-330): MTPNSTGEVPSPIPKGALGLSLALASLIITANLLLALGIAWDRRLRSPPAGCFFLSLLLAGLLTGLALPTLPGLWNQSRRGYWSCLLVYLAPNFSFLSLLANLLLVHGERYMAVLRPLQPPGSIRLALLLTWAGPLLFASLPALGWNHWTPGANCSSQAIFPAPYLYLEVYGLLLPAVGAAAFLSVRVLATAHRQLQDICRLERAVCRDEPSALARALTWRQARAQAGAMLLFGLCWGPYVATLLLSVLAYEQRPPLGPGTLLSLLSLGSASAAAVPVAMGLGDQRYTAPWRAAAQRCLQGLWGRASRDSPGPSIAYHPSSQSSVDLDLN
Experiment: Cell-based TGR5 assay (cAMP generation, HTRF)
Conditions: HEK293 cells stably transfected with human TGR5; cAMP by HTRF; 30 minutes at 37° C.; read-out: pEC50 Human TGR5 (converted)
Procedure, shortened: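 Read-out was HTRF detection of cAMP, converted to concentration via a standard curve and fitted (3-parameter logistic) for pEC50 and maximal response. Agonist stimulation used HEK293 cells stably transfected with human TGR5, incubated 30 min at 37° C in IBMX-containing buffer at 0.05 nM to 10 μM compound.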

EC50 [nM]	Compound
< 100	O=C(NCCOCCSc1ccc(Cl)c(COC2(c3cnccc3-c3ccccc3OC3CC3)CC2)c1)N[C@@H](CO)[C@@H](O)[C@H](O)[C@H](O)CO [Compound I-637, 1-[2-(2-{[4-chloro-3-({1-[4-(2-cyclopropoxyphenyl)pyridin-3-yl]cyclopropoxy}methyl)phenyl]sulfanyl}ethoxy)ethyl]-3-[(2S,3R,4S,5R)-1,3,4,5,6-pentahydroxyhexan-2-yl]urea]
< 100	CC(C)N(CCCCNC(=O)NC[C@H](O)[C@@H](O)[C@H](O)[C@H](O)CO)S(=O)(=O)c1ccc(Cl)c(CNC2(c3cnccc3-c3ccccc3OC3CC3)CC2)c1 [Compound I-751, 4-chloro-3-(((1-(4-(2-cyclopropoxyphenyl)pyridin-3-yl)cyclopropyl)amino)methyl)-N-isopropyl-N-(4-(3-((2S,3R,4R,5R)-2,3,4,5,6-pentahydroxyhexyl)ureido)butyl) benzenesulfonamide]
< 100	CS(=O)(=O)NCCCN(CCCSc1ccc(Cl)c(CNC2(c3cnccc3-c3ccccc3OC3CC3)CC2)c1)C(=O)[C@@H](O)[C@@H](O)[C@H](O)[C@@H](O)CO [Compound I-588, (2S,3S,4R,5S)-N-[3-({4-chloro-3-[({1-[4-(2-cyclopropoxyphenyl)pyridin-3-yl]cyclopropyl}amino)methyl]phenyl}sulfanyl)propyl]-2,3,4,5,6-pentahydroxy-N-(3-methanesulfonamidopropyl) hexanamide]
1260 to 10000	NC(=O)CCN(C[C@H](O)[C@@H](O)[C@H](O)[C@H](O)CO)C(=O)CCCSc1ccc(Cl)c(COC2(c3cnccc3-c3ccccc3OC3CC3)CC2)c1 [Compound I-675, N-(2-carbamoylethyl)-4-{[4-chloro-3-({1-[4-(2-cyclopropoxyphenyl)pyridin-3-yl]cyclopropoxy}methyl)phenyl]sulfanyl}-N-[(2S,3R,4R,5R)-2,3,4,5,6-pentahydroxyhexyl]butanamide]
126 to 1000	O=C1CCCN1CCCN(CCCSc1ccc(Cl)c(COC2(c3cnccc3-c3ccccc3OC3CC3)CC2)c1)C(=O)[C@@H](O)[C@@H](O)[C@H](O)[C@@H](O)CO [Compound I-520, (2S,3S,4R,5S)-N-(3-{[4-chloro-3-({1-[4-(2-cyclopropoxyphenyl)pyridin-3-yl]cyclopropoxy}methyl)phenyl]sulfanyl}propyl)-2,3,4,5,6-pentahydroxy-N-[3-(2-oxopyrrolidin-1-yl)propyl]hexanamide]
< 100	O=C(NCCCCCSc1ccc(Cl)c(COC2(c3cnccc3-c3ccccc3OC3CC3)CC2)c1)[C@@H](O)[C@@H](O)[C@H](O)[C@@H](O)CO [Compound I-611, (2S,3S,4R,5S)-N-(5-{[4-chloro-3-({1-[4-(2-cyclopropoxyphenyl)pyridin-3-yl]cyclopropoxy}methyl)phenyl]sulfanyl}pentyl)-2,3,4,5,6-pentahydroxyhexanamide]
< 100	CS(=O)(=O)CCN(CCCCSc1ccc(Cl)c(COC2(c3cnccc3-c3ccccc3OC3CC3)CC2)c1)C[C@H](O)[C@@H](O)[C@H](O)[C@H](O)CO [Compound I-613, (2R,3R,4R,5S)-6-[(4-{[4-chloro-3-({1-[4-(2-cyclopropoxyphenyl)pyridin-3-yl]cyclopropoxy}methyl)phenyl]sulfanyl}butyl)(2-methanesulfonylethyl)amino]hexane-1,2,3,4,5-pentol]
< 100	CN(C[C@H](O)[C@@H](O)[C@H](O)[C@H](O)CO)C(=O)CCCS(=O)(=O)c1ccc(Cl)c(CNC2(c3cnccc3-c3ccccc3OC3CC3)CC2)c1 [Compound I-646, 4-{4-chloro-3-[({1-[4-(2-cyclopropoxyphenyl)pyridin-3-yl]cyclopropyl}amino)methyl]benzenesulfonyl}-N-methyl-N-[(2S,3R,4R,5R)-2,3,4,5,6-pentahydroxyhexyl]butanamide]

Second part, the compound before the results:

Compound	EC50 [nM]
CC(CCCC(=O)N(C)C[C@H](O)[C@@H](O)[C@H](O)[C@H](O)CO)c1cc(Cl)c(CNC2(c3cnccc3-c3ccccc3OC3CC3)CC2)cc1Cl (stereo partly drawn) [Compound I-379, 5-{2,5-dichloro-4-[({1-[4-(2-cyclopropoxyphenyl)pyridin-3-yl]cyclopropyl}amino)methyl]phenyl}-N-methyl-N-[(2S,3R,4R,5R)-2,3,4,5,6-pentahydroxyhexyl]hexanamide]	126 to 1000
CN(CCCCNC(=O)NC[C@H](O)[C@@H](O)[C@H](O)[C@H](O)CO)S(=O)(=O)c1cc(CNC2(c3cnccc3-c3ccccc3OC3CC3)CC2)c(Cl)cc1F [Compound I-474, 1-(4-{N-methyl4-chloro-5-[({1-[4-(2-cyclopropoxyphenyl)pyridin-3-yl]cyclopropyl}amino)methyl]-2-fluorobenzenesulfonamido}butyl)-3-[(2S,3R,4R,5R)-2,3,4,5,6-pentahydroxyhexyl]urea]	< 100
O=C(NC[C@H](O)[C@@H](O)[C@H](O)[C@H](O)CO)C1CCN(S(=O)(=O)c2ccc(Cl)c(COC3(c4cnccc4-c4ccccc4OC4CC4)CC3)c2)CC1 [Compound I-437, 1-[4-chloro-3-({1-[4-(2-cyclopropoxyphenyl)pyridin-3-yl]cyclopropoxy}methyl)benzenesulfonyl]-N-[(2S,3R,4R,5R)-2,3,4,5,6-pentahydroxyhexyl]piperidine-4-carboxamide]	< 100
CC(CCCC(=O)NCCN1CCN(C(=O)NC[C@H](O)[C@@H](O)[C@H](O)[C@H](O)CO)CC1)c1ccc(Cl)c(CNC2(c3cnccc3-c3ccccc3OC3CC3)CC2)c1 (stereo partly drawn) [Compound I-322, 4-[2-(5-{4-chloro-3-[({1-[4-(2-cyclopropoxyphenyl)pyridin-3-yl]cyclopropyl}amino)methyl]phenyl}hexanamido)ethyl]-N-[(2S,3R,4R,5R)-2,3,4,5,6-pentahydroxyhexyl]piperazine-1-carboxamide]	< 100
Cc1cc(CNC2(c3cnccc3-c3ccccc3OC3CC3)CC2)c(Cl)cc1CCCCC(=O)N(C)C[C@H](O)[C@@H](O)[C@H](O)[C@H](O)CO [Compound I-143, 5-{5-chloro-4-[({1-[4-(2-cyclopropoxyphenyl)pyridin-3-yl]cyclopropyl}amino)methyl]-2-methylphenyl}-N-methyl-N-[(2S,3R,4R,5R)-2,3,4,5,6-pentahydroxyhexyl]pentanamide]	< 100
COc1ccccc1-c1ccncc1C1(OCc2cc(Cl)ccc2Cl)CC1 [Compound I-45, 3-[1-[(2,5-dichlorophenyl)methoxy]cyclopropyl]-4-(2-methoxyphenyl)pyridine]	< 100
CCS(=O)(=O)CCN(CCCC(C)c1ccc(C)c(CNC2(c3cnccc3-c3ccccc3OC3CC3)CC2)c1)C(=O)[C@@H](O)[C@@H](O)[C@H](O)[C@@H](O)CO (stereo partly drawn) [Compound I-307, (2S,3S,4R,5S)-N-(4-{3-[({1-[4-(2-cyclopropoxyphenyl)pyridin-3-yl]cyclopropyl}amino)methyl]-4-methylphenyl}pentyl)-N-[2-(ethanesulfonyl)ethyl]-2,3,4,5,6-pentahydroxyhexanamide]	< 100
CCCN(C[C@H](O)[C@@H](O)[C@H](O)[C@H](O)CO)C(=O)CCCC(C)c1ccc(C)c(CNC2(c3cnccc3-c3ccccc3OC3CC3)CC2)c1 (stereo partly drawn) [Compound I-354, 5-{3-[({1-[4-(2-cyclopropoxyphenyl)pyridin-3-yl]cyclopropyl}amino)methyl]-4-methylphenyl}-N-[(2S,3R,4R,5R)-2,3,4,5,6-pentahydroxyhexyl]-N-propylhexanamide]	< 100
CC(CCCN(C)C(=O)[C@@H](O)[C@@H](O)[C@H](O)[C@@H](O)CO)c1ccc(Cl)c(CNC2(c3cnccc3-c3ccccc3OC3CC3)CC2)c1 (stereo partly drawn) [Compound I-258, (2S,3S,4R,5S)-N-(4-[4-chloro-3-[([1-[4-(2-cyclopropoxyphenyl)pyridin-3-yl]cyclopropyl]amino)methyl]phenyl]pentyl)-2,3,4,5,6-pentahydroxy-N-methylhexanamide]	< 100
CS(=O)(=O)CCN(C[C@H](O)[C@@H](O)[C@H](O)[C@H](O)CO)C(=O)CCCCc1cc(Cl)c(COC2(c3cnccc3-c3ccccc3OC3CC3)CC2)cc1Cl [Compound I-130, 5-[2,5-dichloro-4-({1-[4-(2-cyclopropoxyphenyl)pyridin-3-yl]cyclopropoxy}methyl)phenyl]-N-(2-methanesulfonylethyl)-N-[(2S,3R,4R,5R)-2,3,4,5,6-pentahydroxyhexyl]pentanamide]	< 100
O=C(CCCCc1cc(Cl)c(COC2(c3cnccc3-c3ccccc3OC3CC3)CC2)cc1Cl)N(CCCO)C[C@H](O)[C@@H](O)[C@H](O)[C@H](O)CO [Compound I-218, 5-[2,5-dichloro-4-({1-[4-(2-cyclopropoxyphenyl)pyridin-3-yl]cyclopropoxy}methyl)phenyl]-N-(3-hydroxypropyl)-N-[(2S,3R,4R,5R)-2,3,4,5,6-pentahydroxyhexyl]pentanamide]	< 100
CCN(CCOCCNC(=O)NC[C@H](O)[C@@H](O)[C@H](O)[C@H](O)CO)S(=O)(=O)c1ccc(Cl)c(COC2(c3cnccc3-c3ccccc3OC3CC3)CC2)c1 [Compound I-411, 1-(2-{2-[N-ethyl4-chloro-3-({1-[4-(2-cyclopropoxyphenyl)pyridin-3-yl]cyclopropoxy}methyl)benzenesulfonamido]ethoxy}ethyl)-3-[(2S,3R,4R,5R)-2,3,4,5,6-pentahydroxyhexyl]urea]	< 100
